Reference: patent publication EP1289507B1, “USE OF AN ALDOSTERONE ANTAGONIST FOR THE TREATMENT OR PROPHYLAXIS OF ALDOSTERONE-MEDIATED PATHOGENIC EFFECTS” (priority 2000, dated 2001)

Assays:
saline-drinking SHRSP = assay: Protocol 1: renal pathologic changes in saline-drinking SHRSP; type: in vivo, male SHRSP/A3N
Experimental: Animals. Studies were conducted in accordance with institutional guidelines using male SHRSP/A3N (generations F-75 to F-78), n = 37, from our local colony. These animals were bred from NIH stock, derived from the SHRSP/A3N substrain described originally by Okamoto and coworkers (Okamoto K et al. Circ. Res. 34 and 35 (suppl I):I-143-I-153.). All animals were housed in a room maintained on a 12:12-h light:dark-cycle and an ambient temperature of 22 ± 1°C in the Animal Care Facility at New York Medical College. Rats were weaned at 4 weeks of age and allowed free access to Purina Lab Chow 5001 (Ralston Purina, St. Louis, MO) and tap water until the initiation of experimental protocols.
Eighteen SHRSP were given 1% NaCl to drink and were fed Stroke-Prone Rodent Diet (#39-288, Zeigler Brothers, Inc., Gardners, PA) starting at 8.1 weeks of age. […] Vehicle-control littermates received 2 ml/kg/d of the 0.5% methylcellulose solution. Animals were housed individually in metabolic cages so that measurements of 24-h urine output and protein excretion could be made. Animals were examined each day for neurologic signs of stroke. Systolic arterial pressure and heart rate were measured each week in awake rats. The experiment was terminated after 5 weeks of treatment when the animals were 13.1 weeks of age. Trunk blood was collected into chilled EDTA tubes following rapid decapitation of the animals between 10:00 am and 12:00 pm. Blood was stored at - 20°C for later measurement of plasma aldosterone levels. The kidneys were rapidly removed, weighed, and then preserved in fixative for later histologic examination.
Assays and Analyses. Systolic blood pressure and heart rate of awake animals were measured by tail-cuff plethysmography using a Natsume KN-210 manometer and tachometer (Peninsula Laboratories Inc., Belmont, CA). Rats were warmed at 37°C for 10 min and allowed to rest quietly in a Lucite chamber before measurement of blood pressure. Measurements of urine volume were made gravimetrically. Urinary protein concentration was determined by the sulfosalicylic acid turbidity method. Plasma aldosterone was measured by radioimmunoassay using ^125I-aldosterone as a tracer (Coat-a Count Aldosterone, Diagnostic Products Co., Los Angeles, CA).
Histology. Kidneys were preserved in 10% phosphate-buffered formalin. Coronal sections (2-3 µm) were stained with hematoxylin and eosin and examined by light microscopy in a blinded fashion as previously described (Stier CT et al. J Pharmacol Exp Ther (1992) 260:1410-1415). Glomerular damage was categorized as ischemic or thrombotic. Ischemic lesions were defined as retraction of glomerular capillary tufts with or without appreciable mesangiolysis. Glomerular thrombotic lesions were defined as any one of a combination of the following: segmental to global fibrinoid necrosis, focal thrombosis of glomerular capillaries, swelling and proliferation of intracapillary (endothelial and mesangial) and/or extracapillary cells (crescents), and expansion of reticulated mesangial matrix with or without significant hypercellularity. […] Vascular thrombotic lesions were defined as any one or a combination of the following: mural fibrinoid necrosis, extravasation and fragmentation of red blood cells, and luminal and/or mural thrombosis. Proliferative arteriopathy was characterized by proliferation of markedly swollen myointimal cells with swollen round to ovoid vesicular nuclei surrounded by mucinous extracellular matrix ("onion skinning") often resulting in nodular thickening. Vascular damage was expressed as the number of arteries and arterioles with lesions per 100 glomeruli. The presence of casts and tubular (ischemic) retraction and simplification was assessed semiquantitatively.
Statistical Analysis. Significant effects with respect to treatment and time were determined by two-way analysis of variance. Data with only one grouping variable were analyzed statistically by Student's unpaired t tests. […]

[1] = Multiple dose tolerability and pharmacokinetic trials, Japan and Ex-Japan; type: in vivo, Japanese (Japan) and European (Ex-Japan) subjects; conditions: Japanese male subjects, 400 mg daily for seven days, six subjects
Experimental: The Ex-Japan trials included (i) a single dose tolerability trial, and (ii) a multiple dose tolerability trial, and (iii) a food effect study.
Both single dose and multiple dose tolerability trials were conducted in Japan utilizing healthy male Japanese subjects. […] Six subjects who received the 100 mg dose also participated in the food effect treatment arm of the single dose tolerability trial.
No formal statistical analyses were performed and the actual derived data is presented for comparison purposes only.
A multiple-dose safety and pharmacokinetic study among Japanese subjects was conducted in Japan. This was a single-blind, randomized, placebo-controlled study. […] Serial blood and urine samples were collected throughout the study for measurement of pharmacokinetic, renal, and hormonal parameters after a single dose on Day 1 and after seven days of dosing.

[2] = 96 hours postdose; other tissues below the limit of detection; 20 mg/kg
[3] = tested on: saline-loaded adrenalectomized rats treated with aldosterone; assay: Subcutaneous vs. oral administration: urinary Na/K in saline-loaded adrenalectomized rats treated with aldosterone; type: in vivo; conditions: antagonizing aldosterone-mediated renal effects
Experimental: Urinary sodium, potassium and water excretion were measured. The results are expressed as the ratio of excreted urinary sodium to potassium (Na/K) ± SEM.

[4] = tested on: aortas of New Zealand white rabbits on normal or 1 % cholesterol chow; assay: Endothelial function (isometric tension, superoxide generation) of aortas in diet induced atherosclerosis; type: in vivo; conditions: for % NTG (peak relaxation to nitroglycerin) / %Ach (peak relaxation to acetylcholine): eplerenone 50 mg/kg twice daily; for %Ach (peak relaxation to acetylcholine): 6 weeks; for O2 counts: lucigenin chemiluminescence
Experimental: Methods: New Zealand white rabbits were randomized to four treatment groups. 32 Rabbits were placed on normal (NC) or 1 % cholesterol chow (HC) for a duration of 8 weeks. […] Rabbits were euthanized at the end of 8 weeks and the aortas extracted for isometric tension studies and estimation of superoxide (O2^-) generation in vessel segments by lucigenin chemiluminescence (250 µM). Vessels were preconstricted with phenylephrine (3 x 10^-7) to approximately 50% of peak constriction and dose responses to acetylcholine (Ach) and nitroglycerin (NTG) tested.

[5] = oral eplerenone 100 mg/kg/d, preterminal

Structure (SMILES): COC(=O)[C@@H]1CC2=CC(=O)CC[C@]2(C)[C@@]23O[C@@H]2C[C@@]2(C)[C@@H](CC[C@@]24CCC(=O)O4)[C@H]13 [Eplerenone, Pregn-4-ene-7,21-dicarboxylic acid, 9,11-epoxy-17-hydroxy-3-oxo-, γ-lactone, methyl ester, (7α, 11α, 17β)-]
- Glomerular damage, Ischemic (saline-drinking SHRSP; 100 mg/kg/d by gavage, 5 weeks): 1.0 ± 1.0 lesions/100 glomeruli
- Glomerular damage, Thrombotic (saline-drinking SHRSP; 100 mg/kg/d by gavage, 5 weeks): 0.1 ± 0.1 lesions/100 glomeruli
- Glomerular damage, Total (saline-drinking SHRSP; 100 mg/kg/d by gavage, 5 weeks): 1.0 ± 1.0 lesions/100 glomeruli
- Renal angiopathy, Proliferative (saline-drinking SHRSP; 100 mg/kg/d by gavage, 5 weeks): 0.1 ± 0.1 lesions/100 glomeruli
- Renal angiopathy, Thrombotic (saline-drinking SHRSP; 100 mg/kg/d by gavage, 5 weeks): 1.0 ± 1.0 lesions/100 glomeruli
- Renal angiopathy, Total (saline-drinking SHRSP; 100 mg/kg/d by gavage, 5 weeks): 1.0 ± 1.0 lesions/100 glomeruli
- Protein casts, % of tubules (saline-drinking SHRSP; 100 mg/kg/d, 5 weeks): 0.11 ± 0.04%
- tubules displaying ischemic retraction and simplification (saline-drinking SHRSP; 100 mg/kg/d, 5 weeks): 0.5 ± 0.2%
- evidence of stroke (saline-drinking SHRSP; n = 9, P < .01 vs vehicle): none
- renal lesions (saline-drinking SHRSP; oral eplerenone 100 mg/kg/d for 5 to 6 weeks): 1 ± 1%
- proteinuria (urinary protein excretion) (saline-drinking SHRSP; [5]): 16 ± 2 mg/day
- severe hypertension (systolic blood pressure) (saline-drinking SHRSP; [5]): 219 ± 6 mm Hg
- adverse events [1]: mild fatigue on Day 2
- concentrations of radioactivity in cecum, kidneys, large intestine and liver [2]: less than 0.024 µg equivalents/g
- efficacy of subcutaneous injection vs oral administration [3]: better efficacy than oral administration
- % NTG (peak relaxation to nitroglycerin) ([4]; 1 % cholesterol chow (HC)): 112±4%
- %Ach (peak relaxation to acetylcholine) ([4]; 1 % cholesterol chow (HC)): 82±6 %
- O2 counts ([4]; 1 % cholesterol chow (HC)): 1400±504 per mg of dry weight
- % NTG (peak relaxation to nitroglycerin) ([4]; normal chow (NC)): 107±2%
- %Ach (peak relaxation to acetylcholine) ([4]; normal chow (NC)): 97±3%
- O2 counts ([4]; normal chow (NC)): 1110±373 per mg of dry weight
